Data taken from patent US20240092782A1, “TRICYCLIC PESTICIDAL COMPOUNDS” (BASF SE, priority 2021, published 2024).

Legend:
Assay type in all cases: in vivo
[1] = test system: yellow fever mosquito (Aedes aegypti); assay: whole plant or invertebrate; details: 48 h, larval mortality after 2 days, read-out: mortality in comparison with untreated controls
Method: Yellow Fever Mosquito (Aedes aegypti)
For evaluating control of yellow fever mosquito (Aedes aegypti) the test unit consisted of 96-well-microtiter plates containing 200 μl of tap water per well and 5-15 freshly hatched A. aegypti larvae. The active compounds were formulated using a solution containing 75% (v/v) water and 25% (v/v) DMSO. Different concentrations of formulated compounds or mixtures were sprayed onto the insect diet at 2.5 μl, using a custom built micro atomizer, at two replications. After application, microtiter plates were incubated at 28+1° C., 80+5% RH for 2 days. Larval mortality was then visually assessed.

[2] = test system: boll weevil (Anthonomus grandis); assay: Boll weevil (Anthonomus grandis) egg and larval mortality, insect diet microtiter plate; details: 120 h, egg and larval mortality after 5 days, read-out: mortality in comparison with untreated controls
Method: Boll Weevil (Anthonomus grandis)
(§1) For evaluating control of boll weevil (Anthonomus grandis) the test unit consisted of 96-well-microtiter plates containing an insect diet and 5-10 A. grandis eggs. The compounds were formulated using a solution containing 75% v/v water and 25% v/v DMSO. Different concentrations of formulated compounds were sprayed onto the insect diet at 5 μl, using a custom built micro atomizer, at two replications. After application, microtiter plates were incubated at about 25±1° C. and about 75±5% relative humidity for 5 days. Egg and larval mortality was then visually assessed.

[3] = test system: tobacco budworm (Heliothis virescens); assay: whole plant or invertebrate; details: 120 h, egg and larval mortality after 5 days, read-out: mortality in comparison with untreated controls
Method: Tobacco Budworm (Heliothis virescens)
as §1, with “of tobacco budworm (Heliothis virescens)” for “of boll weevil (Anthonomus grandis)”, “and 15-25 H. virescens” for “and 5-10 A. grandis”, “at 10” for “at 5”, “about 28±1°” for “about 25±1°”, “about 80±5%” for “about 75±5%”

[4] = test system: Green Peach Aphid (Myzus persicae); assay: whole plant or invertebrate; details: 120 h, aphid mortality after 5 days, read-out: mortality in comparison with untreated controls
Method: Green Peach Aphid (Myzus persicae)
The 10,000 ppm solution was serially diluted in 100% cyclohexanone to make interim solutions. These served as stock solutions for which final dilutions were made by the Tecan in 50% acetone:50% water (v/v) into 10 or 20 ml glass vials. A nonionic surfactant (Kinetic®) was included in the solution at a volume of 0.01% (v/v). The vials were then inserted into an automated electrostatic sprayer equipped with an atomizing nozzle for application to plants/insects. Bell pepper plants at the first true-leaf stage were infested prior to treatment by placing heavily infested leaves from the main colony on top of the treatment plants. Aphids were allowed to transfer overnight to accomplish an infestation of 30-50 aphids per plant and the host leaves were removed. The infested plants were then sprayed by an automated electrostatic plant sprayer equipped with an atomizing spray nozzle. The plants were dried in the sprayer fume hood, removed, and then maintained in a growth room under fluorescent lighting in a 14:10 light:dark photoperiod at about 25° C. and about 20-40% relative humidity. Aphid mortality on the treated plants, relative to mortality on untreated control plants, was determined after 5 days.

[5] = test system: Red Spider Mite (Tetranychus kanzawai); assay: Red spider mite (Tetranychus kanzawai) mortality on sprayed cowpea beans; details: 72 hours after treatment, read-out: mortality in comparison with untreated controls
Method: Red Spider Mite (Tetranychus kanzawai)
The active compound of formula ( ))s dissolved at the desired concentration in a mixture of 1:1 (vol:vol) distilled water:acetone. Add surfactant (Kinetic) is added at a rate of 0.01% (vol/vol).The test solution is prepared at the day of use. Potted cowpea beans of 4-5 days of age are cleaned with tap water and sprayed with 1-2 ml of the test solution using air driven DeVilbiss® hand atomizer at 20-30 psi (≈1.38 to 2.07 bar). The treated plants are allowed to air dry and afterwards inoculated with 30 or more mites by clipping a cassava leaf section from rearing population. Treated plants are placed inside a holding room at about 25-26° C. and about 65-70% relative humidity. Estimate percent mortality is assessed 72 hours after treatment.

CCS(=O)(=O)c1cc(Br)cnc1-c1nc2cc(C(F)(F)F)n3ncnc3c2n1C [I.2, 8-(5-bromo-3-(ethylsulfonyl)pyridin-2-yl)-9-methyl-5-(trifluoromethyl)-9H-imidazo[4,5-c][1,2,4]triazolo[1,5-a]pyridine]
> 70%: mortality at 10 ppm ([1]; 10 ppm) | mortality at 30 ppm ([2]; 30 ppm) | mortality at 10 ppm ([3]; 10 ppm) | mortality at 10 ppm ([4]; 10 ppm) | mortality at 10 ppm ([5]; 10 ppm)

CCS(=O)(=O)c1cc(Br)ccc1-c1nc2cc(C(F)(F)F)n3ncnc3c2n1C [I.8, 11-(4-bromo-2-ethylsulfonyl-phenyl)-12-methyl-7-(trifluoromethyl)-3,5,6,10,12-pentazatricyclo[7.3.0.02,6]dodeca-1(9),2,4,7,10-pentaene]
> 70%: mortality at 800 ppm ([1]; 800 ppm) | mortality at 800 ppm [2] | mortality at 800 ppm ([3]; 800 ppm) | mortality at 800 ppm ([4]; 800 ppm) | mortality at 800 ppm [5]

CCS(=O)(=O)c1cc(N=S(C)(C)=O)cnc1-c1cn2c(cc(C(F)(F)F)n3ccnc32)n1 [I.24, [5-ethylsulfonyl-6-[7-(trifluoromethyl)-1,3,6,10-tetrazatricyclo[7.3.0.02,6]dodeca-2,4,7,9,11-pentaen-11-yl]-3-pyridyl]imino-dimethyl-oxo-λ6-sulfane]
> 70%: mortality at 800 ppm [2] | mortality at 800 ppm [5]
